Experimental findings from US20240327408A1, “COMPOUNDS CONTAINING TETRAHYDRONAPHTHYRIDINONE OR TETRAHYDROPYRIDOPYRIMIDINONE SKELETON, PREPARATION METHOD THEREFOR AND PHARMACEUTICAL USE THEREOF” (CHINA PHARMACEUTICAL UNIVERSITY, priority 2021, published 2024) are described below.

The subject of one assay is MV4; 11 cells. Kind of assay: inhibiting the growth of MV4; 11 cells. The class given is cell-based. The following applies: Homo sapiens.
In the next assay the target is T1, hClpP (Homo sapiens, UniProt Q16740).
T1 construct: made in house
T1 sequence (Q16740 57-277): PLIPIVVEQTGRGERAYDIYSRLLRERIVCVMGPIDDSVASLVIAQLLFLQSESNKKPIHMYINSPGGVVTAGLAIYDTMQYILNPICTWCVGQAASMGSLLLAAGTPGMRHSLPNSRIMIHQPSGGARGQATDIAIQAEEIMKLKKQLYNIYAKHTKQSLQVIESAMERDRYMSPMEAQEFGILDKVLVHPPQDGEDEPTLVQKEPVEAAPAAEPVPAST
Kind of assay: activating ClpP hydrolysis of FITC-casein (fluorescence kinetic detection). The class given is biochemical. The following applies: hClpP 1 μM, FITC-Casein 4 μM, 37° C. On the procedure:
The specific procedures were as follows:
Test compounds were each prepared into a 100 mM stock solution in DMSO and stored. and 1 μL of stock solution of each of the compounds was taken and diluted to 10 mM by adding 9 μL of DMSO for later use.
The compounds of formula I of the present invention were each diluted at concentrations of 200 μM, 50 μM, 10 μM, 2 μM, 500 nM, 100 nM, 20 nM, and 2 nM in an assay buffer. 50 μL of each of the compounds at different concentrations was added to each well, with 2 replicate wells.
The protein was diluted to 4 μM in an assay buffer. 25 μL of protein was added to each well, and incubated at 37° C. for 30 min. The final concentration was 1 μM.
25 μL of FITC-Casein was added to each well. The final concentration was 4 μM. The mixture was immediately loaded on the machine for detection.
FITC-Casein and FITC-Casein+ClpP were used as negative controls.
The detection temperature was 37° C. The plate was shaken for 3 s. […] Kinetic parameters were set, and scanning was performed once every 1 min for 15 min.

The structures appear in SMILES notation. pEC50, pIC50: −log10 of the molar value. A value given as a limit tells only on which side of the number the result lay.

Broadly, the pIC50 is −log10 of the IC50, conventionally taken in molar units. The term pEC50 denotes the EC50 on a negative log10 scale, so that one unit is a factor of ten. Lower therefore signals a large EC50. `O=c1c2c(c3cccnc3n1Cc1ccccc1)CCN(Cc1cc(Cl)ccn1)C2` [Compound I-30, 6-benzyl-3-((4-chloropyridin-2-yl)methyl)-2,3,4,6-tetrahydropyrido[3,4-c][1,8]naphthyridine-5-(1H)-one] gave a pIC50 in the assay on MV4; 11 cells of 5.00 to 6.00. At hClpP, this compound had a negative-log EC50 (pEC50) of 4.00 to 5.00.
As to `Cn1ccnc1CN1CCc2c(c(=O)n(Cc3ccccc3)c3ncccc23)C1` [Compound I-31, 6-benzyl-3-((1-methyl-1H-imidazol-2-yl)methyl)-2,3,4,6-tetrahydropyrido[3,4-c][1,8]naphthyridine-5-(1H)-one], in the assay with MV4; 11 cells, the negative-log IC50 (pIC50) was 5.00 to 6.00. On hClpP, this compound showed a pEC50 of 4.00 to 5.00.
Turning to `Cn1cnc(CN2CCc3c(c(=O)n(Cc4ccccc4)c4ncccc34)C2)c1` [Compound I-32, 6-benzyl-3-((1-methyl-1H-imidazol-4-yl)methyl)-2,3,4,6-tetrahydropyrido[3,4-c][1,8]naphthyridine-5-(1H)-one], in the assay on MV4; 11 cells, the pIC50 is 5.00 to 6.00. Besides, the pEC50 at hClpP was 4.00 to 5.00.
Consider `Cn1cncc1CN1CCc2c(c(=O)n(Cc3ccccc3)c3ncccc23)C1` [Compound I-33, 6-benzyl-3-((1-methyl-1H-imidazol-5-yl)methyl)-2,3,4,6-tetrahydropyrido[3,4-c][1,8]naphthyridine-5-(1H)-one], for which the pIC50 in the assay on MV4; 11 cells was 5.00 to 6.00. The pEC50 at hClpP is 4.00 to 5.00.
As for `Cc1noc(C)c1CN1CCc2c(c(=O)n(Cc3ccccc3)c3ncccc23)C1` [Compound I-34, 6-benzyl-3-((3,5-dimethylisoxazol-4-yl)methyl)-2,3,4,6-tetrahydropyrido[3,4-c][1,8]naphthyridine-5-(1H)-one], the pIC50 in the assay on MV4; 11 cells was 5.00 to 6.00. The compound also showed a pEC50 at hClpP of 4.00 to 5.00.
On the same counts, the results for `Cc1ncc(CN2CCc3c(c(=O)n(Cc4ccccc4)c4ncccc34)C2)s1` [Compound I-35, 6-benzyl-3-((2-methylthiazol-5-yl)methyl)-2,3,4,6-tetrahydropyrido[3,4-c][1,8]naphthyridine-5-(1H)-one] are 5.00 to 6.00 and 4.00 to 5.00.
For `O=c1c2c(c3cccnc3n1CC1CC1)CCN(Cc1ccccc1)C2` [Compound I-36, 3-benzyl-6-(cyclopropylmethyl)-2,3,4,6-tetrahydropyrido[3,4-c][1,8]naphthyridine-5-(1H)-one], the pIC50 with MV4; 11 cells was 5.00 to 6.00. The compound also showed a pEC50 at hClpP of 4.00 to 5.00.
Taken in the same sequence, the figures for `O=c1c2c(c3cccnc3n1CC1CCC1)CCN(Cc1ccccc1)C2` [Compound I-37, 3-benzyl-6-(cyclobutylmethyl)-2,3,4,6-tetrahydropyrido[3,4-c][1,8]naphthyridine-5-(1H)-one] were 5.00 to 6.00 and 4.00 to 5.00.
Take `O=c1c2c(c3cccnc3n1CC1CCCC1)CCN(Cc1ccccc1)C2` [Compound I-38, 3-benzyl-6-(cyclopentylmethyl)-2,3,4,6-tetrahydropyrido[3,4-c][1,8]naphthyridine-5-(1H)-one]: the pIC50 in the assay on MV4; 11 cells was 5.00 to 6.00. Moreover, the pEC50 at hClpP was 4.00 to 5.00.
For the compound `O=c1c2c(c3cccnc3n1CC1CCCCC1)CCN(Cc1ccccc1)C2` [Compound I-39, 3-benzyl-6-(cyclohexylmethyl)-2,3,4,6-tetrahydropyrido[3,4-c][1,8]naphthyridine-5-(1H)-one], the pIC50 with MV4; 11 cells is 6.04. The compound further showed a pEC50 at hClpP of 4.00 to 5.00.
In the case of `O=c1c2c(c3cccnc3n1Cc1ccccc1F)CCN(Cc1ccccc1)C2` [Compound I-40, 3-benzyl-6-(2-fluorobenzyl)-2,3,4,6-tetrahydropyrido[3,4-c][1,8]naphthyridine-5-(1H)-one], in the assay with MV4; 11 cells, the pIC50 is over 6.00. In addition, on hClpP, the pEC50 was 5.00 to 6.00.
On the same counts, the results for `O=c1c2c(c3cccnc3n1Cc1ccccc1Cl)CCN(Cc1ccccc1)C2` [Compound I-41, 3-benzyl-6-(2-chlorobenzyl)-2,3,4,6-tetrahydropyrido[3,4-c][1,8]naphthyridine-5-(1H)-one] are over 6.00 and 5.00 to 6.00.
Compound `O=c1c2c(c3cccnc3n1Cc1ccccc1Br)CCN(Cc1ccccc1)C2` [Compound I-42, 3-benzyl-6-(2-bromobenzyl)-2,3,4,6-tetrahydropyrido[3,4-c][1,8]naphthyridine-5-(1H)-one] gave a pIC50 with MV4; 11 cells of over 6.00. On hClpP, this compound showed a pEC50 of 5.00 to 6.00.
The compound `Cc1ccccc1Cn1c(=O)c2c(c3cccnc31)CCN(Cc1ccccc1)C2` [Compound I-43, 3-benzyl-6-(2-methylbenzyl)-2,3,4,6-tetrahydropyrido[3,4-c][1,8]naphthyridine-5-(1H)-one] showed a pIC50 in the assay on MV4; 11 cells of over 6.00. This compound also had a pEC50 at hClpP of 5.00 to 6.00.
On to `CCc1ccccc1Cn1c(=O)c2c(c3cccnc31)CCN(Cc1ccccc1)C2` [Compound I-44, 3-benzyl-6-(2-ethylbenzyl)-2,3,4,6-tetrahydropyrido[3,4-c][1,8]naphthyridine-5-(1H)-one], for which the pIC50 in the assay with MV4; 11 cells was over 6.00. This compound also showed a pEC50 on hClpP of 5.00 to 6.00.
`COc1ccccc1Cn1c(=O)c2c(c3cccnc31)CCN(Cc1ccccc1)C2` [Compound I-45, 3-benzyl-6-(2-methoxybenzyl)-2,3,4,6-tetrahydropyrido[3,4-c][1,8]naphthyridine-5-(1H)-one] gave a pIC50 in the assay with MV4; 11 cells of over 6.00. The pEC50 on hClpP is 5.00 to 6.00.
In turn, `O=c1c2c(c3cccnc3n1Cc1cccc(F)c1)CCN(Cc1ccccc1)C2` [Compound I-46, 3-benzyl-6-(3-fluorobenzyl)-2,3,4,6-tetrahydropyrido[3,4-c][1,8]naphthyridine-5-(1H)-one] showed a pIC50 in the assay on MV4; 11 cells of over 6.00. This compound also showed a pEC50 on hClpP of over 6.00.
Compound `O=c1c2c(c3cccnc3n1Cc1cccc(Cl)c1)CCN(Cc1ccccc1)C2` [Compound I-47, 3-benzyl-6-(3-chlorobenzyl)-2,3,4,6-tetrahydropyrido[3,4-c][1,8]naphthyridine-5-(1H)-one] had a pIC50 in the assay on MV4; 11 cells of over 6.00. The compound further gave a pEC50 on hClpP of over 6.00.
As for `O=c1c2c(c3cccnc3n1Cc1cccc(Br)c1)CCN(Cc1ccccc1)C2` [Compound I-48, 3-benzyl-6-(3-bromobenzyl)-2,3,4,6-tetrahydropyrido[3,4-c][1,8]naphthyridine-5-(1H)-one], in the assay on MV4; 11 cells, the pIC50 is over 6.00. For the same compound, the pEC50 on hClpP was over 6.00.
Compound `Cc1cccc(Cn2c(=O)c3c(c4cccnc42)CCN(Cc2ccccc2)C3)c1` [Compound I-49, 3-benzyl-6-(3-methylbenzyl)-2,3,4,6-tetrahydropyrido[3,4-c][1,8]naphthyridine-5-(1H)-one] gave a pIC50 in the assay on MV4; 11 cells of over 6.00. The compound also had a pEC50 on hClpP of over 6.00.
Compound `CCc1cccc(Cn2c(=O)c3c(c4cccnc42)CCN(Cc2ccccc2)C3)c1` [Compound I-50, 3-benzyl-6-(3-ethylbenzyl)-2,3,4,6-tetrahydropyrido[3,4-c][1,8]naphthyridine-5-(1H)-one] showed a pIC50 with MV4; 11 cells of over 6.00. For the same compound, the pEC50 at hClpP is over 6.00.
For `COc1cccc(Cn2c(=O)c3c(c4cccnc42)CCN(Cc2ccccc2)C3)c1` [Compound I-51, 3-benzyl-6-(3-methoxybenzyl)-2,3,4,6-tetrahydropyrido[3,4-c][1,8]naphthyridine-5-(1H)-one], the pIC50 in the assay on MV4; 11 cells was over 6.00. The compound also had a pEC50 at hClpP of over 6.00.
In turn, `O=c1c2c(c3cccnc3n1Cc1ccc(F)cc1)CCN(Cc1ccccc1)C2` [Compound I-52, 3-benzyl-6-(4-fluorobenzyl)-2,3,4,6-tetrahydropyrido[3,4-c][1,8]naphthyridine-5-(1H)-one] had a pIC50 with MV4; 11 cells of over 6.00. The same compound gave a negative logarithm of the EC50 (pEC50) on hClpP of over 6.00.
For the compound `O=c1c2c(c3cccnc3n1Cc1ccc(Cl)cc1)CCN(Cc1ccccc1)C2` [Compound I-53, 3-benzyl-6-(4-chlorobenzyl)-2,3,4,6-tetrahydropyrido[3,4-c][1,8]naphthyridine-5-(1H)-one], the pIC50 in the assay with MV4; 11 cells was over 6.00. Further, at hClpP, the pEC50 was over 6.00.
For the compound `O=c1c2c(c3cccnc3n1Cc1ccc(Br)cc1)CCN(Cc1ccccc1)C2` [Compound I-54, 3-benzyl-6-(4-bromobenzyl)-2,3,4,6-tetrahydropyrido[3,4-c][1,8]naphthyridine-5-(1H)-one], in the assay with MV4; 11 cells, the pIC50 was over 6.00. The compound further gave a pEC50 at hClpP of over 6.00.
As for `Cc1ccc(Cn2c(=O)c3c(c4cccnc42)CCN(Cc2ccccc2)C3)cc1` [Compound I-55, 3-benzyl-6-(4-methylbenzyl)-2,3,4,6-tetrahydropyrido[3,4-c][1,8]naphthyridine-5-(1H)-one], in the assay with MV4; 11 cells, the pIC50 is over 6.00. The compound also showed a pEC50 at hClpP of over 6.00.
Turning to `CCc1ccc(Cn2c(=O)c3c(c4cccnc42)CCN(Cc2ccccc2)C3)cc1` [Compound I-56, 3-benzyl-6-(4-ethylbenzyl)-2,3,4,6-tetrahydropyrido[3,4-c][1,8]naphthyridine-5-(1H)-one], the pIC50 with MV4; 11 cells is over 6.00. In addition, the pEC50 on hClpP was over 6.00.
On to `COc1ccc(Cn2c(=O)c3c(c4cccnc42)CCN(Cc2ccccc2)C3)cc1` [Compound I-57, 3-benzyl-6-(4-methoxybenzyl)-2,3,4,6-tetrahydropyrido[3,4-c][1,8]naphthyridine-5-(1H)-one], for which, in the assay on MV4; 11 cells, the pIC50 was over 6.00. On hClpP, this compound showed a pEC50 of over 6.00.
`Cn1ccc(Cn2c(=O)c3c(c4cccnc42)CCN(Cc2ccccc2)C3)n1` [Compound I-58, 3-benzyl-6-((1-methyl-1H-pyrazol-3-yl)methyl)-2,3,4,6-tetrahydropyrido[3,4-c][1,8]naphthyridine-5-(1H)-one] had a pIC50 in the assay with MV4; 11 cells of 5.00 to 6.00. In addition, the pEC50 on hClpP was 4.00 to 5.00.
Consider `Cn1nccc1Cn1c(=O)c2c(c3cccnc31)CCN(Cc1ccccc1)C2` [Compound I-59, 3-benzyl-6-((1-methyl-1H-pyrazol-5-yl)methyl)-2,3,4,6-tetrahydropyrido[3,4-c][1,8]naphthyridine-5-(1H)-one], for which, in the assay with MV4; 11 cells, the pIC50 was 5.00 to 6.00. The same compound gave a pEC50 on hClpP of 4.00 to 5.00.
